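Five concentrations, 48 hours, 96-well plates. GI50: concentration for 50% inhibition of growth.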 The source made the active and inactive calls. Cut-off read from the data, not from the text of the source: active = GI50 up to about 1.1 µM and inactive = higher.

Among the test systems are SF-295; 786-0; HOP-92; HT-29; CCRF-CEM; MDA-N; SN12C; UO-31; SW-620; NCI/ADR-RES; SNB-19; NCI-H23; HOP-62; DU-145; OVCAR-3; SF-268; RPMI-8226; HCT-15; MDA-MB-231; HL-60.
What all share (experiment): growth of human tumour cells (NCI), 48 h

Regarding `Cc1ccsc1/C=N/Nc1nncc2ccccc12`, the GI50 in the assay on SF-295 is > 100 µM (inactive); in the assay on 786-0, 90.2 µM (inactive); with HOP-92 it was > 100 µM (inactive); in the assay on HT-29 it was > 100 µM (inactive); in the assay with CCRF-CEM, 53.2 µM (inactive); in the assay with MDA-N it was > 100 µM (inactive). Moreover, the GI50 was > 100 µM (inactive) with SN12C; 21.9 µM (inactive) in the assay on UO-31; > 100 µM (inactive) in the assay on SW-620; > 100 µM (inactive) in the assay with NCI/ADR-RES; > 100 µM (inactive) in the assay on SNB-19; > 100 µM (inactive) with NCI-H23. Further, the GI50 is > 100 µM (inactive) with HOP-62; > 100 µM (inactive) with DU-145; > 100 µM (inactive) in the assay with OVCAR-3; 93.3 µM (inactive) with SF-268; 81.8 µM (inactive) in the assay on RPMI-8226; > 100 µM with HCT-15. Further, in the assay on MDA-MB-231, the GI50 was > 100 µM (inactive).
As to `Oc1nc2c(c(-c3cccc(Cl)c3)n1)COC/C2=C\c1cccc(Cl)c1`, the GI50 was > 100 µM (inactive) with SF-295; > 100 µM (inactive) with 786-0; > 100 µM (inactive) in the assay with HOP-92; 64.4 µM (inactive) in the assay on CCRF-CEM; > 100 µM (inactive) in the assay with MDA-N; > 100 µM (inactive) with SN12C. The GI50 with UO-31, with SW-620, in the assay on NCI/ADR-RES, with SNB-19, with NCI-H23 and in the assay on HOP-62 was > 100 µM (inactive) each time. For the same molecule, the GI50 was > 100 µM (inactive) with DU-145; > 100 µM (inactive) in the assay with OVCAR-3; > 100 µM (inactive) in the assay on SF-268; 69.7 µM (inactive) in the assay on RPMI-8226; > 100 µM in the assay with HCT-15; > 100 µM (inactive) with MDA-MB-231.
With `C/C=C1/CN2CCC34c5ccccc5N5C(=O)C(C6CC78c9ccccc9N9C(=O)C=CC(C%10CC7N6C/C%10=C/C)C98)=CC(C1CC23)C54` (configuration not stated), the GI50 with SF-295 is 9.2 µM (inactive); with 786-0, 4.67 µM (inactive); with HOP-92, 6.32 µM (inactive); with HT-29 it was 2.44 µM (inactive); in the assay with CCRF-CEM, 0.501 µM (active); in the assay with MDA-N it was 5.47 µM (inactive). Also, the GI50 in the assay with SN12C is 5.53 µM (inactive); in the assay with UO-31, 2.84 µM (inactive); in the assay on SW-620 it was 1.59 µM (inactive); in the assay on NCI/ADR-RES it was 8.34 µM (inactive); in the assay with HL-60, 183 nM (active); in the assay with SNB-19, 7.87 µM (inactive). Moreover, the GI50 in the assay on NCI-H23 is 5.98 µM (inactive); in the assay on HOP-62 it was 8.59 µM (inactive); in the assay on DU-145, 7.71 µM (inactive); in the assay with OVCAR-3, 5.6 µM (inactive); in the assay on SF-268, 6.89 µM (inactive); in the assay with HCT-15 it was 3.75 µM. For the same molecule, the GI50 with MDA-MB-231 was 2.32 µM (inactive).
Regarding `CCCCCCCCC/C=C1/CC(CO)(COC(=O)CC(C(C)C)C(C)C)OC1=O` (configuration not stated), the GI50 with SF-295 was 0.675 µM (active); in the assay with 786-0, 1.35 µM (inactive); in the assay with HOP-92, 1.28 µM (inactive); in the assay with HT-29, 16.3 µM (inactive); with CCRF-CEM it was 5.35 µM (inactive); in the assay on MDA-N, 0.21 µM (active). The GI50 with SN12C is 2.42 µM (inactive); in the assay with UO-31, 2.44 µM (inactive); with SW-620 it was 1.16 µM (inactive); with NCI/ADR-RES it was 14.1 µM (inactive); in the assay on HL-60 it was 271 nM (active); in the assay with SNB-19 it was 10.5 µM (inactive). Besides, the GI50 in the assay on NCI-H23 was 13.1 µM (inactive); in the assay on HOP-62 it was 1.12 µM (inactive); in the assay on DU-145 it was 12.4 µM (inactive); in the assay with OVCAR-3 it was 13.9 µM (inactive); in the assay on SF-268, 11.3 µM (inactive); in the assay on HCT-15 it was 14.4 µM. Further, the GI50 in the assay with MDA-MB-231 is 2.59 µM (inactive).
On to `COC(=O)[C@]1(C)CCC[C@]2(C)[C@@H](CCC(=O)C(C)C)[C@]3(C=O)O[C@@H]3C[C@H]21`, for which the GI50 in the assay with SF-295 is 36.1 µM (inactive); in the assay on 786-0, 32.4 µM (inactive); in the assay on HOP-92, 29.8 µM (inactive); with HT-29, 38.9 µM (inactive); in the assay with CCRF-CEM, 32.2 µM (inactive); in the assay on MDA-N it was 23.6 µM (inactive). The GI50 in the assay with SN12C was 30.6 µM (inactive); in the assay on UO-31, 18.7 µM (inactive); with SW-620 it was 47.6 µM (inactive); in the assay on NCI/ADR-RES it was 25.7 µM (inactive); in the assay on HL-60 it was 40100 nM (inactive); with SNB-19, 37.2 µM (inactive). Also, the GI50 in the assay on NCI-H23 was 28.1 µM (inactive); with DU-145 it was 39.4 µM (inactive); with OVCAR-3, 33.4 µM (inactive); with SF-268, 44.1 µM (inactive); with HCT-15, 26.6 µM; in the assay on MDA-MB-231, 52 µM (inactive).
As to `Cc1c([C@H](C)[C@@H]2NC[C@@H](C)C[C@H]2O)ccc2c1C[C@H]1[C@H]2CC=C2C[C@@H](O)CC[C@@]21C` [VERATRAMINE], the GI50 with SF-295 was 12.4 µM (inactive); with 786-0 it was 17 µM (inactive); with HOP-92, 2.07 µM (inactive); in the assay on HT-29 it was 13.7 µM (inactive); in the assay with CCRF-CEM it was 16.1 µM (inactive); in the assay on MDA-N, 15.7 µM (inactive). Further, the GI50 is 20.4 µM (inactive) with SN12C; 14 µM (inactive) in the assay with UO-31; 28.6 µM (inactive) in the assay on SW-620; 23.4 µM (inactive) in the assay on NCI/ADR-RES; 27.8 µM (inactive) in the assay with SNB-19; 11.7 µM (inactive) with NCI-H23. In addition, the GI50 with HOP-62 is 23.4 µM (inactive); with DU-145 it was 27.6 µM (inactive); in the assay with OVCAR-3 it was 15.6 µM (inactive); in the assay on SF-268 it was 27.7 µM (inactive); with RPMI-8226 it was 3.29 µM (inactive); in the assay with HCT-15, 20.2 µM. The GI50 in the assay with MDA-MB-231 is 16.4 µM (inactive).
As to `Nc1cc2c(c3ccccc13)C(CCl)CN2C(=O)c1cc2cc(NC(=O)Nc3ccc4[nH]c(C(=O)N5CC(CCl)c6c5cc(N)c5ccccc65)cc4c3)ccc2[nH]1` (configuration not stated), the GI50 in the assay on SF-295 was 0.0404 µM (active); with 786-0, 0.0153 µM (active); in the assay on HOP-92 it was 2.19 µM (inactive); in the assay with HT-29, < 0.0176 µM (active); in the assay with CCRF-CEM, < 0.01 µM (active); in the assay on MDA-N, 0.292 µM (active). Besides, the GI50 in the assay on SN12C is 0.0656 µM (active); in the assay on UO-31, 0.0559 µM (active); in the assay with SW-620, 0.075 µM (active); in the assay on NCI/ADR-RES, 1.31 µM (inactive); in the assay on SNB-19 it was 0.0785 µM (active); with NCI-H23 it was 0.0239 µM (active). For the same molecule, the GI50 in the assay on HOP-62 was 0.0568 µM (active); in the assay on DU-145, < 0.01 µM (active); in the assay on OVCAR-3 it was 0.467 µM (active); with SF-268, 0.0514 µM (active); in the assay on RPMI-8226, 1.4 µM (inactive); in the assay with HCT-15, 1.96 µM. In addition, the GI50 in the assay on MDA-MB-231 is 0.27 µM (active).
As to `CCOC(=O)/C=C(\C(=O)OCC)n1ccc(=O)n(CC(=O)OCC)c1=O`, the GI50 in the assay on SF-295 is 17.9 µM (inactive); in the assay on 786-0, 1.82 µM (inactive); in the assay on HOP-92 it was 1.45 µM (inactive); with HT-29 it was 5.9 µM (inactive); in the assay with CCRF-CEM, 0.592 µM (active); in the assay on MDA-N it was 5.96 µM (inactive). In addition, the GI50 is 4.84 µM (inactive) in the assay with SN12C; 6.73 µM (inactive) with UO-31; 1.23 µM (inactive) in the assay with SW-620; 9.57 µM (inactive) with NCI/ADR-RES; 495 nM (active) in the assay on HL-60; 19.3 µM (inactive) in the assay with SNB-19. Further, the GI50 in the assay with NCI-H23 was 8.07 µM (inactive); in the assay with HOP-62, 20.7 µM (inactive); with DU-145, 17.3 µM (inactive); in the assay with OVCAR-3, 3.96 µM (inactive); with SF-268, 13.2 µM (inactive); in the assay on HCT-15, 1.83 µM. The GI50 in the assay on MDA-MB-231 is 6.12 µM (inactive).
As for `O=C(O)c1ccccc1-c1ccccc1C(=O)Nc1ccc2c(c1)Cc1ccccc1-2`, the GI50 in the assay with SF-295 was 39.1 µM (inactive); in the assay with 786-0 it was 34.7 µM (inactive); with HOP-92, 46.8 µM (inactive); with HT-29, 25.5 µM (inactive); in the assay on MDA-N, 27.4 µM (inactive); with SN12C, 29.3 µM (inactive). The GI50 in the assay on UO-31 was 30 µM (inactive); in the assay with SW-620 it was 31.8 µM (inactive); in the assay on NCI/ADR-RES, 45 µM (inactive); with SNB-19 it was 36.1 µM (inactive); in the assay with NCI-H23 it was 18 µM (inactive); in the assay on HOP-62, 58.6 µM (inactive). For the same molecule, the GI50 in the assay with DU-145 was 38.8 µM (inactive); in the assay with OVCAR-3, 25.3 µM (inactive); in the assay with SF-268, 43.1 µM (inactive); in the assay with RPMI-8226, 23.4 µM (inactive); in the assay with HCT-15 it was 20.4 µM; in the assay on MDA-MB-231, 60.5 µM (inactive).
Take `OC1(c2ccccc2)CSC2=Nc3ccccc3C3CCN1N23` (configuration not stated): the GI50 with SF-295 is 6.47 µM (inactive); in the assay with 786-0 it was 18.7 µM (inactive); with HOP-92, 18.9 µM (inactive); with HT-29, 18.1 µM (inactive); with CCRF-CEM it was 26.2 µM (inactive); in the assay on MDA-N, 14.1 µM (inactive). Besides, the GI50 with SN12C was 23.5 µM (inactive); with UO-31, 15.4 µM (inactive); with SW-620 it was 21.4 µM (inactive); in the assay on NCI/ADR-RES it was 18.5 µM (inactive); in the assay with HL-60, 30100 nM (inactive); with SNB-19 it was 15.5 µM (inactive). For the same molecule, the GI50 in the assay on NCI-H23 was 27.7 µM (inactive); in the assay with HOP-62, 14.5 µM (inactive); in the assay with DU-145, 15.6 µM (inactive); with OVCAR-3 it was 26.7 µM (inactive); with SF-268, 21.7 µM (inactive); with HCT-15 it was 17.6 µM. The GI50 in the assay on MDA-MB-231 was 15.5 µM (inactive).
